The values that follow come from publication PMC6325219, “Preclinical Characterization of NVR 3-778, a First-in-Class Capsid Assembly Modulator against Hepatitis B Virus” (Antimicrobial Agents and Chemotherapy, 2018).

For one series, the system named is HBV GT H. Put plainly: Transient-transfection antiviral study in HepG2 cells, GT H. In kind it is cell-based. Particulars: Hepatitis B virus, HepG2, 72 h, read-out: EC50 (mean), HBV GT H.
A further series relates to HBV rtA181V variant. Put plainly: microbe, parasite or virus in culture. It counts as cell-based, hepatitis B virus. Particulars: ratio of mean EC50 against variant over WT HBV, HepG2 cells. The text has this:
(§1) Plasmids containing HBV DNA with rtN236T, rtA181V, rtA181V/N236T, and rtL180M/M204V/N236T were generated using the GT B WT or rtL180M/M204V DNA-containing plasmids and site-directed mutagenesis (Agilent Technologies). A panel of nine different HBV core variants (cW102G, cW102R, cI105V, cI105L, cI105T, cT109S, cT109M, cT109I, and cY118F) was generated, also using the GT B WT DNA-containing plasmid and site-directed mutagenesis. The full-length genome from all plasmids was sequenced to confirm that only the intended nucleotide change(s) was present. Finally, HBV sequences from genotypes A (GenBank accession number AF305422), C (GenBank accession number AB033550), D (GenBank accession number V01460), E (GenBank accession number AB274971), F (GenBank accession number AB036912), G (GenBank accession number AF160501), and H (GenBank accession number AB375159) were gene synthesized as 1.1 times the genome length together with part of the CMV promoter at the 5′ end. The gene-synthesized piece was validated by sequencing and subcloned into the pCMV-HBV plasmid using the restriction sites SalI and NdeI (Genewiz, USA).
(§2) HepG2 cells were seeded in 96-well plates at a density of 20,000 cells/well and allowed to attach overnight at 37°C in 5% CO2. Cells were cotransfected with the HBV plasmids (100 ng/well) and a Gaussia expression plasmid (10 ng/well) (Thermo Scientific) using the Lipofectamine LTX Plus transfection reagent (Life Technologies). Transfection mixtures were removed after overnight incubation, and cells were treated with serially diluted NVR 3-778 at a final dimethyl sulfoxide (DMSO) concentration of 0.5%. After 3 days of incubation with the compound, the supernatants were collected and secreted Gaussia luciferase was measured using a Gaussia Flash luciferase assay kit (Thermo Scientific). Cells were lysed with 0.33% NP-40 (Thermo Scientific), and the cytoplasmic fractions were treated with 2 units of Turbo DNase (Invitrogen) and 10 units of S7 nuclease (Roche) in CutSmart buffer (New England Biolabs) containing 25 µM CaCl2 (G-Biosciences) at 37°C for 60 min, followed by inactivation of the enzymes at 75°C for 15 min. Samples were diluted into lysis buffer (Affymetrix) containing 2.5 µg proteinase K (Affymetrix) at 50°C for 40 min. Intracellular encapsidated HBV DNA was denatured for 30 min at 25°C in 0.2 M NaOH (Sigma) and incubated with HBV DNA probes designed to hybridize to the minus-strand HBV DNA (Affymetrix). The denatured DNA was subsequently detected using a QuantiGene assay kit, according to the branched DNA (bDNA) assay recommended by the manufacturer (Affymetrix).
(§3) To determine percent inhibition, the mean background signal from wells containing only culture medium was subtracted from the signal for all other samples, and percent inhibition at each compound concentration was calculated by normalization to the signals for HepG2.2.15 cells treated with 0.5% DMSO. […] Both CalcuSyn and MacSynergy II (Ann Arbor, MI) software were used to evaluate the effect of compound combinations ([27]). After data analysis at the 95% confidence level, values of synergy or antagonism of <25 µM^2% were defined as insignificant, those between 25 and 50 µM^2% were defined as minor, those between 50 and 100 µM^2% were defined as moderate, and those of >100 µM^2% were defined as strong.

The next series deals with HBV GT E. Put plainly: Transient-transfection antiviral study in HepG2 cells, GT E. It counts as cell-based. Particulars: Hepatitis B virus, HepG2, 72 h, read-out: EC50 (mean), HBV GT E.
Details of series [1]: method as in PMID 29079518. Particulars: humanized mice; cited from earlier work.
A further series has as its system plasma proteins. Briefly: Plasma protein binding by equilibrium dialysis, human. It counts as in vitro ADME. Particulars: 2 µM. The text has this:
The binding of NVR 3-778 to the plasma proteins of mouse, rat, dog, monkey, and human was investigated by equilibrium dialysis.

For another series, the system named is HBV GT A. Briefly: Transient-transfection antiviral study in HepG2 cells, GT A. In kind it is cell-based. Particulars: Hepatitis B virus, 72 h, 3 days, intracellular encapsidated rcDNA.
The subject of another series is HBV. On the set-up: method as in doi:10.1016/S0168-8278(16)00175-6. Particulars: HBV-infected patients; cited from earlier work.
In series [2] the test system is HBV core protein variant T109I. Put plainly: microbe, parasite or virus in culture.
Excerpt: as §1, §2, §3

Series [3] relates to HBV core protein variant Y118F. Briefly: microbe, parasite or virus in culture.
Excerpt: as §1, §2, §3

Series [4] deals with HBV core protein variant I105T. Put plainly: microbe, parasite or virus in culture.
Excerpt: as §1, §2, §3

The subject of series [5] is HBV core protein variant T109M. Briefly: microbe, parasite or virus in culture.
Excerpt: as §1, §2, §3

Series [6] has as its system HBV core protein variant T109S. Put plainly: Transient-transfection antiviral study in HepG2 cells, core variant T109S. In kind it is cell-based, hepatitis B virus.
Experimental: (§4) Cells were cotransfected with the HBV plasmids (100 ng/well) and a Gaussia expression plasmid (10 ng/well) (Thermo Scientific) using the Lipofectamine LTX Plus transfection reagent (Life Technologies). Transfection mixtures were removed after overnight incubation, and cells were treated with serially diluted NVR 3-778 at a final dimethyl sulfoxide (DMSO) concentration of 0.5%. After 3 days of incubation with the compound, the supernatants were collected and secreted Gaussia luciferase was measured using a Gaussia Flash luciferase assay kit (Thermo Scientific). […] Samples were diluted into lysis buffer (Affymetrix) containing 2.5 µg proteinase K (Affymetrix) at 50°C for 40 min. Intracellular encapsidated HBV DNA was denatured for 30 min at 25°C in 0.2 M NaOH (Sigma) and incubated with HBV DNA probes designed to hybridize to the minus-strand HBV DNA (Affymetrix). The denatured DNA was subsequently detected using a QuantiGene assay kit, according to the branched DNA (bDNA) assay recommended by the manufacturer (Affymetrix).
Another series has as its system HBV GT F. Briefly: Transient-transfection antiviral study in HepG2 cells, GT F. In kind it is cell-based. Particulars: Hepatitis B virus, HepG2, 72 h, read-out: EC50 (mean), HBV GT F.
In series [7] the test system is HBV rtA181V/N236T variant. In kind it is cell-based, hepatitis B virus. Particulars: ratio of mean EC50 against variant over WT HBV, HepG2 cells.
Excerpt: as §1, §2, §3

The subject of another series is HBV rtN236T variant. In kind it is cell-based, hepatitis B virus. Particulars: ratio of mean EC50 against variant over WT HBV, HepG2 cells.
Excerpt: as §1, §2, §3

The mark [8] stands for this setting: ratio of mean EC50 for core variant over wild-type HBV.

The structures appear in SMILES notation. Marks after values point to notes of the source that are not given here.

Experimental for HBV GT A: as §4
Experimental for HBV GT E: as §4
Experimental for HBV GT F: as §4
Experimental for HBV GT H: as §4

As to `O=C(Nc1cc(F)c(F)c(F)c1)c1ccc(F)c(S(=O)(=O)N2CCC(O)CC2)c1` [NVR 3-778], the EC50 (usually the concentration giving half of the maximal effect) in the series on HBV GT H worked out at 580 nM; in the series with HBV GT E, 580 nM; in the series on HBV GT A, 380 nM; in series [2] (Hepatitis B virus, HepG2, read-out: EC50, core variant T109I), 150 ± 61 nM; in [3] (Hepatitis B virus, HepG2, read-out: EC50, core variant Y118F), 1700 ± 700 nM; in series [4] (Hepatitis B virus, HepG2, read-out: EC50, core variant I105T), 1500 ± 300 nM. Besides, the EC50 in series [5] (Hepatitis B virus, HepG2, read-out: EC50, core variant T109M) came to 280 ± 130 nM; in series [6] (Hepatitis B virus, HepG2, read-out: EC50, core variant T109S), 770 ± 270 nM; in the series with HBV GT F, 560 nM. Further, the “EC50 fold change, rtA181V” value in the series with HBV rtA181V variant is 0.82 ± 0.19^d fold. The “Plasma trough concentrations, all mice” value in series [1] is “at least 3 µM”. Besides, in the series on plasma proteins, the “Mean percent binding to plasma proteins” value was “approximately 98%”. Moreover, the “Antiviral effect, combination with pegIFN versus NVR 3-778 monotherapy” value in the series with HBV is “greatest antiviral effect”. For the same compound, in series [2] (setting [8]), the “EC50 FC, T109I” value worked out at 0.65 fold. Further, the “EC50 FC, Y118F” value in [3] (setting [8]) is on record as 7.4 fold. In addition, the “EC50 FC, I105T” value in series [4] (setting [8]) amounted to 6.5 fold. In addition, in series [5] (setting [8]), the “EC50 FC, T109M” value came out at 1.2 fold. Besides, the “EC50 FC, T109S” value in [6] (setting [8]) is reported as 3.3 fold. Moreover, the “EC50 fold change, rtA181V/N236T” value in [7] is 0.85 ± 0.26^d fold. Besides, the “EC50 fold change, rtN236T” value in the series with HBV rtN236T variant is 0.85 ± 0.40^d fold.
